# Reference: article PMC6801448, “The Antioxidant and Antiproliferative Activities of 1,2,3-Triazolyl-L-Ascorbic Acid Derivatives” (International Journal of Molecular Sciences, 2019)
# Like-named read-outs stand apart in the source and are kept apart here.
# What was measured:
# [1] = tested on: HeLa (cervical carcinoma); experiment: MTT proliferation assay, HeLa; format: cell-based; conditions: Homo sapiens, 72 h
# Summary of the method: (§1)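 5000 cells/well, DMEM + 10% FBS; compound added at 24 h, 0.01–100 μM, 72 h, 37 °C/5% CO2. MTT 3 h, DMSO, OD 570 nm → % growth (NIH protocol) → IC50 by regression.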
# [2] = tested on: SW620 (colorectal adenocarcinoma, metastatic); experiment: MTT proliferation assay, SW620; format: cell-based; conditions: Homo sapiens, SW-620, 72 h
# Summary of the method: as §1
# [3] = tested on: MCF-7 (breast adenocarcinoma); experiment: MTT proliferation assay, MCF-7; format: cell-based, Human; conditions: for IC50: Homo sapiens, MCF7, 72 h, MTT
# Summary of the method: as §1
# MCF-7 cells = experiment: Seahorse XF Cell Mito Stress Test, MCF-7; format: cell-based, Human
# Experimental: The Seahorse XF Cell Mito Stress Test was used for measurements of mitochondrial respiration by direct assessment of the oxygen consumption rate (OCR), of treated and untreated cells on the Seahorse XFe24 Analyzer, (Agilent, Santa Clara, CA, USA). Key parameters of the mitochondrial function were measured by direct assessment of the OCR, by use of the Mito Stress Test (Agilent, Agilent, Santa Clara, CA, USA). The Mito Stress Test uses modulators of respiration that target components of the electron transport chain in the mitochondria. The compounds added to the reaction were: oligomycin, mitochondrial oxidative phosphorylation uncoupler carbonyl cyanide-4-(trifluoromethoxy)phenylhydrazone (FCCP), and the mix of rotenone and antymicin A. These were directly injected to the cell growth medium containing cells treated with selected L-ASA derivatives to determine the production of ATP, respiration at maximal level, and the non-mitochondrial respiration. Measured parameters were used for calculation of the proton leakage, spare respiratory capacity, and basal respiration. The assay was performed according to the manufacturer’s instructions (SeaHorse—Mito Stress Test: Agilent, Santa Clara, CA, USA). Briefly, selected compound 4e was tested due to its selective antiproliferative effect on MCF-7 cells. […] […] The experiment was performed with biological duplicates.
# [4] = tested on: HFF-1 (foreskin fibroblasts); experiment: MTT proliferation assay, HFF-1; format: cell-based; conditions: Homo sapiens, 72 h, normal foreskin fibroblasts
# Experimental: Human tumor cell lines HeLa (cervical carcinoma), SW620 (colorectal adenocarcinoma, metastatic), A549 (lung adenocarcinoma), MCF−7 (breast adenocarcinoma), CFPAC-1 (pancreatic adenocarcinoma, metastatic), HCT-116 (colorectal carcinoma), and HepG2 (hepatocellular carcinoma), and normal cell lines HFF-1 (foreskin fibroblasts) and WI-38 (immortalized human lung fibroblast), were from the US American Type Culture Collection (ATCC, Manassas, VA, USA). Cells were cultured in a liquid nutrient medium (Dulbecco’s Modified Eagle Medium, LONZA, Basel, Switzerland) supplemented with 10% fetal bovine serum (FBS, Gibco, Grand Island, NY, USA), 2 mM L-glutamine (GIBCO, Grand Island, NY, USA), 100 μg/mL penicillin, and 100 μg/mL streptomycin (LONZA, Basel, Switzerland), in an incubator (NÜVE, Ankara, Turkey), at a humid atmosphere with 5% CO2 at 37 °C. Trypsin/EDTA Solution (Lonza, Basel, Switzerland), was used for cell passaging and cell detachment.
# Adherent cells were seeded on 96 well microtiter plates (Falcon, New York, NY, USA) at a seeding density of 5000 cells per well, added in 150 μL of cell suspension in a nutrient medium. 24 h after seeding, cells were treated with compound 4b–4g, 4i, 4k–4t, 4v, 7c–7g, and 7i–7q dilutions in the range of 0.01 μM to 100 μM. L-ascoric acid (Sigma Aldrich, Darmstadt, Germany) and Carboxyamidotriazole (Sigma Aldrich, Darmstadt, Germany) were used as control compounds. Incubation of the cells with the compounds were performed for 72 h in a 5% CO2, in humid atmosphere at 37 °C. After incubation, nutrient medium was removed and 40 μL of the MTT reagent ([…]-2,5-diphenyltetrazole bromide (Invitrogen, Carlsbad, CA, USA) was added to each well. 3 h after incubation, 160 μL of DMSO (VWR CHEMICALS, Radnor, PA, USA) were added to each well to dissolve the crystals of purple formazane. The absorbance was measured at 570 nm (TECAN SUNRISE Microtiter plate reader (Männedorf, Switzerland). The experimentally measured optical densities (OD) were converted to the PG (percentage of growth), using the formulas according to the protocol assumed by NIH (National Institute of Health). The IC50 values (concentration causing 50% cell growth inhibition) for each compound were calculated by regression analysis of the survival count curve of the concentrations of the tested compounds. The results were processed in Excel 2010 (Microsoft, Redmond, WA, USA).
# [5] = tested on: CFPAC-1 (ductal pancreatic adenocarcinoma); experiment: MTT proliferation assay, CFPAC-1; format: cell-based; conditions: Homo sapiens, 72 h
# Summary of the method: as §1
# [6] = tested on: A549 (lung adenocarcinoma); experiment: MTT proliferation assay, A549; format: cell-based; conditions: Homo sapiens, 72 h
# Summary of the method: as §1
# [7] = tested on: HepG2 (hepatocellular carcinoma); experiment: MTT proliferation assay, HepG2; format: cell-based; conditions: Homo sapiens, 72 h
# Summary of the method: as §1
# [8] = tested on: HCT-116 (colorectal carcinoma); experiment: MTT proliferation assay, HCT-116; format: cell-based; conditions: Homo sapiens, 72 h
# Summary of the method: as §1
# [9] = DPPH radical scavenging assay; format: biochemical
# Summary of the method: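 Compounds at 0.06, 0.12, 0.18, 0.23, 0.25 and 0.28 mM reacted with the stable DPPH• radical. Absorbance at 517 nm was read 5 and 10 min after mixing to follow DPPH reduction, with L-ascorbic acid as the reference.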
# [10] = 5 min treatment, read-out: IC50 of DPPH• inhibition, Treatm. 5 min
# [11] = 10 min treatment, read-out: IC50 of DPPH• inhibition, Treatm. 10 min
IC50 [1],IC50 [2],IC50 [3],IC50 [5],IC50 [6],IC50 [7],IC50 [8],"IC50 [9, 10]","IC50 [9, 11]",pIC50 (negative logarithm of DPPH• IC50) ([9]; calculated from IC50 values of Table 1),Compound,"selectivity index, SI ([3]; WI-38 versus MCF-7)","basal respiration and ATP production (MCF-7 cells; MCF-7, 24 h, IC50 concentration (6.72 µM) and 2 × IC50 (13.44 µM))","cellular mitochondrial metabolism (MCF-7 cells; MCF-7, 24 h, lower tested concentration (3.36 µM))",IC50 [4],"mitochondrial activity (MCF-7 cells; 24 h, lower concentration (50 mM), Figure 5 panel A (MCF-7 and HFF-1))","basal cell respiration and ATP production (MCF-7 cells; MCF-7, 24 h, higher concentrations)"
> 100 µM,> 100 µM,6.72 µM,> 100 µM,25.4 µM,> 100 µM,> 100 µM,200 ± 10 µM,190 ± 10 µM,–,"O=C1O[C@H]([C@@H](O)Cn2cc(-c3ccc(Br)cc3)nn2)C(O)=C1O [Compound 4e, 6-[4-(4-bromophenyl)-1,2,3-triazol-1-yl]-6-deoxy-L-ascorbic acid]",11,increased the basal respiration and ATP production,lowered cellular mitochondrial metabolism,> 100 µM,–,–
> 100 µM,> 100 µM,> 100 µM,> 100 µM,> 100 µM,> 100 µM,> 100 µM,180 ± 60 µM,170 ± 50 µM,3.75,"O=C1O[C@H]([C@@H](O)CO)C(O)=C1O [L-ASA, L-ascorbic acid]",–,–,–,> 100 µM,did not act on the mitochondrial activity,decreased the basal cell respiration and ATP production
